Literature values in paper PMC3237771 (Biomacromolecules, 2011).

Details: aqueous buffer; no reference given

N=c1c[n+](N2CCOCC2)[n-]o1 [SIN-1, 3-morpholinosydnonimine]
Half-life in aqueous environments: < 10 h
